Measured values as given in patent US12350308B2, “Phosphorylcholine conjugates and uses thereof” (TPCERA LTD., priority 2013, dated 2025).
Where no end group is shown, it is not given here.

Legend:
[1] = test system: splenocytes derived from CIA mice; experiment: Cytokine secretion in-vitro by splenocytes of mice with established CIA; assay type: in vivo; conditions: splenocyte culture fluids; for mean IL-10 level: PBS 298; for mean IL-6 level: PBS 840; for mean IL-1β level: PBS 883; for mean TNF-α level: PBS 1073; for mean IL-17 level: PBS 2170
Experimental: Secretion, in-vitro, of pro-inflammatory and anti-inflammatory cytokines by splenocytes derived from CIA mice treated with TD-PC, PBS, TD, PC, TD+PC or untreated mice was evaluated (FIGS. 32A-32D). The following cytokines secretions were examined: pro-inflammatory IL-1β (FIG. 32A), IL-17 (FIG. 32B), IL-6 (FIG. 32C), TNF-α (FIG. 32D) and anti-inflammatory IL-10 (FIG. 32E).

[2] = test system: DBA/1 CIA mice; experiment: Arthritis score in mice with established CIA (treatment from day 16); assay type: in vivo; conditions: for mean arthritis score: day 35, s.c. 3 times a week, PBS 13.8±0.45; for average arthritis score: time 0 (treatment initiation, day 16 after disease induction), baseline
Description: Rheumatoid Arthritis is a progressive joint deformation disease caused by severe inflammation. CIA mice were subjected to subcutaneous injections of TD-PC, tuftsin derivative (SEQ ID NO: 25), PC, a mix of TD and PC, or PBS, 3 times a week. […] Treatment started as day 16 after disease induction when disease symptoms were already notable. […] The significant reduction in arthritis score was illustrious from day 7 after treatment administration and lasted until day 35 (the day mice were sacrificed).

[3] = test system: Tregs CD4+CD25+FOXP3+; experiment: T regulatory cell profiling by FACS in splenocytes of lupus mice (PC-tuftsin study); assay type: in vivo; conditions: PBS 4±0.6 percent
Experimental: Mice, from age of 14 weeks, received subcutaneously PC-tuftsin at the concentration of 50 μg/0.1 ml per mouse (treatment; n=10) or PBS (control; n=10), three times a week. In the cytokines studies, the relative mRNA expression levels of pro-inflammatory cytokine IFNγ and anti-inflammatory cytokine TGFβ were analyzed by real time RT-PCR using LightCycler (Roche). Total RNA was isolated from splenocytes and was reverse-transcribed into cDNA by using Moloney Murine Leukemia Virus Reverse Transcriptase (Promega). The resulting cDNA was subjected to real-time RT-PCR in the presence of specific primers, according to the manufacturer's instructions (Table 2). The relative expression levels of IFNγ and TGFβ were normalized to β-actin levels.
Finally, a T regulatory cell (Tregs) profiling assay was performed in isolated splenocytes incubated with the following antibodies: anti-CD4^+FITC, anti-CD25^+APC and anti-FOXP3^+PE (eBioscience) and analyzed by FACS. Forward and side scatter gates adjusted to include all cells and to exclude debris (Becton Dickinson). Cells were gated on CD4+ cells, and for intracellular staining, the cells were incubated with a fixation solution, washed and resuspended in permeabilization solution (Serotec). Isotype control was used as reference.

[4] = test system: CD4+CD25+FOXP3+ Tregs; experiment: Treg expansion in spleen cells of lupus mice treated with TD-PC (FACS); assay type: in vivo; conditions: gating on CD4+ T cells; PBS 4%
Description: The percentage of CD4+CD25+FOXP3+ Tregs phenotype subset in spleen cells following treatment with TD-PC, tuftsin derivative (SEQ ID NO: 25), PC or PBS, is elucidated in FIGS. 25A-25B.

[5] = test system: CD4+CD25+FOXP3+ Treg cells; experiment: Treg expansion in splenocytes of mice with established CIA (FACS); assay type: in vivo; conditions: isolated splenocytes; PBS 1.4%
Description: The frequency of CD4+CD25+FOXP3+ Treg cells subset in isolated splenocytes from mice treated with TPC, PBS, TD (SEQ ID NO: 25), PC, TD+PC or untreated is elucidated in FIGS. 33A and 33B. […] Representative data of the CD4+CD25+FOXP3+ levels in splenocytes derived from TD-PC, PBS, TD (SEQ ID NO: 25), PC and TD+PC treated mice and the untreated group, gating on CD4+ T cells are presented in FIG. 33B.

[6] = test system: NZBxW/F1 lupus mice; experiment: Circulating anti-dsDNA antibodies in lupus mice treated with TD-PC (ELISA); assay type: in vivo; conditions: sera at 30 weeks, dilution 1:800; between groups incl. PBS
Experimental: Titers of circulating anti-dsDNA antibodies in the sera of control and treated mice were monitored during the development of lupus, and their levels were measured every 3 weeks. […] FIG. 23 presents the anti dsDNA antibodies titers in the sera at the age 30 weeks at a dilution of 1:800.

[7] = test system: female NZBxW/F1 lupus prone mice; experiment: Proteinuria onset and immune complex deposits in lupus prone mice treated with TD-PC; assay type: in vivo; conditions: s.c., prophylactic from week 14
Description: To examine the potential protective effect of TD-PC (SEQ ID NO: 25 conjugated to PC), female NZBxW/F1 lupus prone mice received subcutaneous injections (s.c) of the TD-PC conjugate, phosphorylcholine (PC), tuftsin derivative (SEQ ID NO: 25) or PBS (control) via a prophylactic protocol starting at week 14, before the clinical onset of lupus (n ¼ 15 per group).

[8] = Dagan S et al., 1987; cited from earlier work
[9] = test system: IL-10+CD25+CD1d+ Breg cells; experiment: Breg expansion in splenocytes of mice with established CIA (FACS); assay type: in vivo; conditions: isolated splenocytes; PBS 0.4%
Experimental: The mean percentage of Breg cells in isolated splenocytes following treatment with TD-PC, PBS, TD (SEQ ID NO: 25), PC, TD+PC and None was measured within IL-10+CD25+CD1d+ subset. […] Representative data of IL-10+CD25+CD1d+ levels in splenocytes derived from TD-PC, PBS, TD (SEQ ID NO: 25), PC and TD+PC treated mice gating on IL-10+ B cells, are presented in FIG. 34A.

[10] = test system: NZBxW/F1 lupus mice; experiment: Survival of lupus mice treated with TD-PC (Kaplan-Meier); assay type: in vivo; conditions: already at week 24
Experimental: A main complication of lupus nephritis is a short survival time due to severe kidney failure. Therefore, the survival time of mice treated either with TD-PC or with PC, tuftsin derivative (SEQ ID NO: 25) or PBS (control) was analyzed.

[11] = test system: splenocytes of NZBW/F1 female mice; experiment: Cytokine secretion in-vitro by splenocytes of lupus mice treated with TD-PC; assay type: in vivo; conditions: vs PBS; for IL-17 secretion from splenocytes: in vitro; for IL-10 secretion by splenocytes / TGFβ production by splenocytes / reduction of splenocyte secretion of IFNγ: in-vitro
Experimental: NZBW/F1 female mice having lupus were treated with TD-PC (SEQ ID NO: 25 conjugated to PC) or the corresponding control treatments. Mice were sacrificed at week 30, and their splenocytes were studied in-vitro for the expression of pro-inflammatory cytokines (IFNγ, IL-17) and anti-inflammatory (TGFβ, IL-10) cytokines using RT-PCR. […] In contrast, TD-PC increased the mRNA expression of the anti-inflammatory cytokine TGFβ in the (p<0.001) compared to the mRNA expressed by splenocytes derived from PBS-treated mice (FIG. 24A).
However, a prominent increase in anti-inflammatory cytokines (TGFβ, IL-10) secretion in-vitro by splenocytes derived from TD-PC treated mice is illustrated in FIG. 24B. […] IFNγ secretion upon tuftsin derivative (SEQ ID NO: 25) or PC treatments was reduced by 2.5 and 1.5 times respectively (p<0.03 and p<0.04, respectively).

Molecule	mean IL-10 level [1] [pg/mL]	mean IL-6 level [1] [pg/mL]	mean IL-1β level [1] [pg/mL]	mean TNF-α level [1] [pg/mL]	mean IL-17 level [1] [pg/mL]	mean arthritis score [2]	average arthritis score [2]	enhancement in Tregs CD4+CD25+FOXP3+ expression level [3]	CD4+CD25+FOXP3+ Tregs in spleen cells [4] [%]	mean percentage of CD4+CD25+FOXP3+ Treg cells [5] [%]	titers of circulating anti-dsDNA antibodies [6]	immune complex (IC) deposits in the mesangium / nephritis class [7]	effect on disease progression [8]	mean percentage of IL-10+CD25+CD1d+ Breg cells [9]	percentage of death number vs PBS injected mice [10]	IL-17 secretion from splenocytes [11]	IL-10 secretion by splenocytes [11]	TGFβ production by splenocytes [11]	reduction of splenocyte secretion of IFNγ [11] [times]
C[N+](C)(C)CCOP(=O)(O)O [PC, phosphorylcholine]	300	795	860	1048	2179	14±0	3.4±1.1	did not cause any significant elevation	3	0.81	No statistically significant change	did not diminish the development of strong mesangial damage	inhibitory effect	0.44%	significant difference	to a lower extent	did not have any effect	minimal effect	1.5
TKPRGY [TD]	304	778	896	1079	2217	13.8±0.45	4.6±1.5	–	8	0.52	No statistically significant change	moderate but not significant effect	–	0,5%	significant difference	Less significant inhibition	increased IL-10 secretion by splenocytes in-vitro but less significant	moderately enhanced	2.5
threonine-lysine-proline-arginine [tuftsin]	–	–	–	–	–	–	–	did not cause any significant elevation	–	–	–	–	–	–	–	–	–	–	–
